# Assay results as given in patent publication US20080131366A1, “Folate Receptor Gene Modulation For Cancer Diagnosis And Therapy” (priority 2003, published 2008).
# Tests used:
# FR-α promoter [1] = assay: FR-α promoter-luciferase in HeLa cells (endogenous GR); assay type: cell-based
# Method: (§1) HeLa cells, which express endogenous GR, were transfected with FR-α promoter-luciferase or GRE2e1b promoter luciferase. […] FIG. 17B: Time course of Dex action. Promoter activity was measured in terms of luciferase activity at the different time points.
# GRE2e1b promoter = system: GRE2e1b promoter
# Method: as §1
# FR-α [2] = assay: Endogenous FR-α in AR-transfected HeLa cells, flow cytometry with fluorescein-folic acid conjugate; assay type: cell-based
# Method: Where indicated, cells were transfected with AR expression plasmid and the testosterone (10 nM) and TSA (50 mg/ml) treatments were for 3 days post-transfection.
# FR-α promoter [3] = assay: FR-α promoter-luciferase in T47D cells (endogenous PR and GR); assay type: cell-based; conditions: TSA 25 ng/ml with R5020
# FR-α promoter [4] = assay: FR-α promoter-luciferase reporter in HeLa cells co-transfected with ER; assay type: cell-based
# Method: (§2) (FIG. 1A) HeLa and IGROV-1 cells (10^6) were co-transfected with the FR-α promoter-luciferase construct (400 ng) and either an ER expression plasmid (25 ng) or with the plasmid vector alone (25 ng) in the presence of 1 nM E2. Antiestrogens were introduced at the time of transfection. […] (FIG. 1B) The FR-α promoter-luciferase construct (400 ng) was transfected into BG-1 cells (10^6) in the absence or in the presence of E2 (1 nM) and antiestrogens were introduced at the time of transfection. (FIG. 1C) HeLa cells (10^6) were transfected with the thymidine kinase (TK)-promoter-luciferase (200 ng) or Rous Sarcoma Virus (RSV)-promoter-luciferase (200 ng) constructs and were co-transfected with either ER plasmid (25 ng) or with the plasmid vector (25 ng). Antiestrogens were introduced at the time of transfection.
# FIGS. 2A and 2B are graphs showing an estrogen and antiestrogen dose response of a control ERE-driven promoter and the FR-α promoter in HeLa cells. The Y-axis in FIG. 2A indicates promoter activation, whereas the Y-axis in FIG. 2B indicates promoter repression. The cells (10^6) were transfected with either ERE2E1b-luciferase (100 ng) (FIG. 2A) or FR-α promoter-luciferase (100 ng) (FIG. 2B) and co-transfected with the ER expression plasmid (50 ng) where indicated. Cells that were not co-transfected with the ER-plasmid were co-transfected instead with the plasmid vector alone (50 ng).
# FIGS. 3A and 3B are graphs showing a time course of response of the control ERE2E1b-luciferase (FIG. 3A) and FR-α promoter luciferase (FIG. 3B) to antiestrogens in HeLa cells. The cells (10^6) were transfected with the indicated promoter-luciferase construct (100 ng) and co-transfected with ER expression plasmid (50 ng) in the presence of E2 (1 nM).
# In one set of experiments, the antiestrogens were removed after a 6 h treatment.
# Cell Culture and Transfection: HeLa I-1 cells were kindly provided by Dr. S. T. Rosen. BG-1 cells were provided by Dr. Randolf Ruch. HeLa (American Type Tissue Collection) and HeLa I-1 cells were routinely cultured in phenol red-free MEM supplemented with fetal bovine serum (FBS) (10%), penicillin (100 units/mL), streptomycin ([…]), and L-glutamine (2 mM). BG-1 and IGROV1 (American Type Tissue Collection) cells were routinely cultured in DMEM and supplemented as above. Treated or transfected cells were grown in phenol-red free media supplemented with charcoal-stripped FBS (5% v/v), penicillin (100 units/mL), streptomycin ([…]), L-glutamine (2 mM), insulin (2 μg/mL), and transferrin (40 μg/mL) unless otherwise noted. In addition, treated HeLa I-1 cells were grown in culture with 50 μg/mL G418. […] Uniformity of transfection was routinely monitored through cotransfections with the β-galactosidase expression plasmid, pSV-β-gal (Promega). β-galactosidase activity was measured colorimetrically using the assay system available from Promega.
# Luciferase Assay: Forty-eight hours after transfection, the cells were washed once with PBS (10 mM sodium phosphate, pH 7.5, 150 mM NaCl) and harvested in 400 μL of reporter lysis buffer provided with the luciferase assay system (Promega). The samples were centrifuged at 12,000 g for 2 min at room temperature. The supernatant was assayed for luciferase activity in a luminometer (Lumat LB9501, Berthold) using the luciferase substrate from Promega.
# FR-α promoter [5] = assay: FR-α promoter-luciferase reporter in IGROV-1 cells co-transfected with ER; assay type: cell-based; conditions: IGROV-1, ER co-transfected, 1 nM E2, pharmacologic concentrations of antiestrogen
# Method: as §2
# Cell Culture and Transfection: HeLa I-1 cells were kindly provided by Dr. S. T. Rosen. BG-1 cells were provided by Dr. Randolf Ruch. […] Uniformity of transfection was routinely monitored through cotransfections with the β-galactosidase expression plasmid, pSV-β-gal (Promega). β-galactosidase activity was measured colorimetrically using the assay system available from Promega. […]
# FR-α [6] = assay: Induction of endogenous FR-α in ER+/FRα-negative cells; assay type: cell-based; conditions: ER+/FRα-negative cells including BG-1; results not shown
# Description: It appears that ER will only modulate the endogenous FR-α gene in cells in which the gene is transcriptionally active.
# FR-α [7] = assay: FR-α in HeLa cell tumor xenografts after tamoxifen, western blot; assay type: in vivo, mouse; conditions: ER+ HeLa cell tumors, tamoxifen 1 mg/kg sc daily
# FR-α promoter [8] = assay: FR-α promoter-luciferase in HeLa cells transfected with AR; assay type: cell-based; conditions: 10 nM
# Method: (§3) FIGS. 10A, 10B, 10C and 10D are graphs showing the enhancement of FR-α promoter activity by testosterone/AR. In HeLa cells, AR was introduced by transiently transfecting an AR expression plasmid. FR-α promoter-luciferase, PSA-promoter-luciferase, or promoterless PGL3 basic-luciferase was co-transfected. Testosterone was introduced at the time of transfection (10 nM in FIGS. 10A, 10C, and 10D) and cells harvested for luciferase assays 48 h post-transfection. […] FIGS. 10C and 10D show AR dose responses for the FR-α and PSA promoters, respectively.
# (§4) FIG. 11 is a graph showing the time course of testosterone/AR action on FR-α and PSA promoters. HeLa cells were cotransfected with AR expression plasmid and either FR-α promoter-luciferase or PSA promoter-luciferase. Testosterone (10 nM) was introduced 48 h post-transfection and the cells harvested to assay luciferase activity at the indicated times.
# PSA promoter = assay: PSA promoter-luciferase in HeLa cells transfected with AR; assay type: cell-based; conditions: 10 nM, introduced 48 h post-transfection
# Method: as §3, §4
# FR (α or β) = assay: FR induction by testosterone in FR-negative cell types; assay type: cell-based; conditions: results not shown
# [9] = target: T1, Estrogen receptor alpha (ER) (UniProt P03372 P03372:1-595); assay: EMSA; HeLa NE present; E2 increased band, tamoxifen and ICI 182,780 abolished it; 100-fold unlabelled ERE blocked; room temperature, 50 mM KCl, 0.5 mM MgCl2; conditions: assayed with HeLa nuclear extract; label: 32P
# [10] = target: T1, Estrogen receptor alpha (ER); assay: EMSA; HeLa NE present; tamoxifen but not ICI 182,780 abolished band; conditions: assayed with HeLa nuclear extract; label: 32P
# [11] = target: T1, Estrogen receptor alpha (ER); assay: EMSA; no ER shift with consensus Sp1; HeLa NE present; conditions: assayed with HeLa nuclear extract; label: 32P
# T1 sequence (P03372 whole entry, one chain of several): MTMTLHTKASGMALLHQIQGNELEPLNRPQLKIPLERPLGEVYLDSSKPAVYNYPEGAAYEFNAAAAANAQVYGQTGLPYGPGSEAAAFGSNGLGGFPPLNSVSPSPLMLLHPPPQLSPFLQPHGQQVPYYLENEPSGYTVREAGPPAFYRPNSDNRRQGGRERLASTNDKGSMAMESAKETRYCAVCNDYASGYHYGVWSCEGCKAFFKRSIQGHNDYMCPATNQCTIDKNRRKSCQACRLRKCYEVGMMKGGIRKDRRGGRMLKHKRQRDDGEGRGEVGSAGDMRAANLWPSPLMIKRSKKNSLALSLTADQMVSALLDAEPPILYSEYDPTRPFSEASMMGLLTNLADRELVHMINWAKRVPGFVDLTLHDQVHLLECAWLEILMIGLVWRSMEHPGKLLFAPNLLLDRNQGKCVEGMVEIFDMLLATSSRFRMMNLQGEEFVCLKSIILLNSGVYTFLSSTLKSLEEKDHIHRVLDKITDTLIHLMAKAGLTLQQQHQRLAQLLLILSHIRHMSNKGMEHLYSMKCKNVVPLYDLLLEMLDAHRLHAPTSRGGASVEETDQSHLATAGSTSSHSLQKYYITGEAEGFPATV
molecule,measurement,setting,value
"C[C@@H]1C[C@H]2[C@@H]3CCC4=CC(=O)C=C[C@]4(C)[C@@]3(F)[C@@H](O)C[C@]2(C)[C@@]1(O)C(=O)CO [Dex, dexamethasone]",concentration of optimal enhancement,FR-α promoter [1],50 nM
same,time at which enhancement began,FR-α promoter [1],> 48 h
same,time at which activation was shown,GRE2e1b promoter,≤ 3 h
"CC(/C=C/C(=O)NO)=C\[C@@H](C)C(=O)c1ccc(N(C)C)cc1 [TSA, trichostatin A]",further enhancement of the testosterone/AR-dependent increase,FR-α [2]; 50 ng/ml TSA with testosterone 10 nM,~4 fold
same,activation of the FR-α promoter by R5020,FR-α promoter [3],greatly potentiated
"CC/C(=C(\c1ccccc1)c1ccc(OCCN(C)C)cc1)c1ccccc1 [tamoxifen, Tamoxifen]",derepression of FR-α promoter after 6 h treatment and withdrawal,"FR-α promoter [4]; 6 h treatment, then compound withdrawn",partially lost
same,effect on FR-α promoter (ligand dose response),"FR-α promoter [4]; HeLa, ER co-transfected",the repression was counteracted
same,FR-α promoter activity after repression by ER,"FR-α promoter [4]; HeLa, ER co-transfected, 1 nM E2, pharmacologic concentrations of antiestrogen",either partially or completely restored to the uninhibited values
same,reporter activity at the end of 48 h post-transfection,FR-α promoter [4]; antiestrogen introduced 24 h after co-transfection,a doubling of the reporter activity
same,onset of activation of FR-α promoter,FR-α promoter [4]; antiestrogen introduced 24 h after transfection,began within hours and progressively increased
same,FR-α promoter activity in the absence of ER,"FR-α promoter [4]; no ER co-transfected, HeLa and IGROV-1, results not shown",did not alter FR-α promoter activity
same,FR-α promoter activity after repression by ER,FR-α promoter [5],either partially or completely restored to the uninhibited values
same,induction of endogenous FR-α expression,FR-α [6],In no case did the inventor observe induction
same,FR-α expression in tumors,FR-α [7],significant increase in FR-α expression
C[C@]12CC[C@H]3[C@@H](CCC4=CC(=O)CC[C@@]43C)[C@@H]1CC[C@@H]2O [testosterone],FR-α promoter activity,FR-α promoter [8],increased the promoter activity
same,time at which activation was observed,FR-α promoter [8]; introduced 48 h post-transfection,2 h
same,time at which activation was observed,PSA promoter,2 h
same,increase in fluorescence of the major peak (endogenous FR),"FR-α [2]; 10 nM for 3 days, AR transfected",approximately 7 fold
same,induction of FR (α or β) expression,FR (α or β),did not induce FR (α or β) expression
FR-alpha P4 promoter probe -89 to -50 (dsDNA) DNA 1: GGAGATGGGGGCAGGGCTCTATCTGCCCCAGGCTTCCGTCC DNA 2: GGACGGAAGCCTGGGGCAGATAGAGCCCTGCCCCCATCTCC,binding result,[9],binds
consensus ERE probe (dsDNA) DNA 1: GTCAGGTCACAGTGACCTGA DNA 2: TCAGGTCACTGTGACCTGAC,binding result,[10],binds
consensus Sp1 probe (dsDNA) DNA 1: ATTCGATCGGGGCGGGGCGAG DNA 2: CTCGCCCCGCCCCGATCGAAT,binding result,[11],no binding
